# “And” between values parts separate entries of the source, which are not always exact repeats. Identical values can stand only once. Positions of bridges follow the written chain, without caps; N, C: chain ends. Non-standard residues stand in square brackets, D forms with d. Residues, ends and D or L forms follow the SMILES beside them. *: point of attachment. FITC = O=C1OC2(c3ccc(O)cc3Oc3cc(O)ccc32)c2ccc(NC(=S)*)cc21; R8 = C=CCCCCCC[C@@](C)(N)C(=O)O; S5 = C=CCCC[C@](C)(N)C(=O)O; AEEA = NCCOCCOCC(=O)O
# What was measured:
# [1] = CD spectroscopy, secondary structure content; format: physicochemical; settings: fluorescein-labeled peptide 75 μM, 10 mM sodium phosphate pH 7.4, CDNN/PEPFIT; for Helix (α-helicity): unbound
# Method: Spectra of fluorescein-labeled peptides were recorded with a J-715 circular dichroism spectrometer (Jasco) using a stoppered quartz cuvette (1 mm; Hellma). Peptide samples (c = 75 μM) were prepared in buffer: 10 mM disodium hydrogen phosphate, pH 7.4. For each sample, 10 CD spectra were measured between λ = 190 and 260 nm with continuous scan mode (10 mdeg sensitivity, 1.0 nm resolution, 1.0 nm bandwidth, 2 s integration time, 50 nm/min scan rate). Obtained spectra were averaged, then subtracted from a reference buffer spectrum and smoothed using a fast Fourier transform filter (FFT filter). The mean residue ellipticity (Θ) (deg·cm^2·dmol^−1·10^4) was calculated using Formula (2) and plotted against wavelength (λ) (nm). The ratio of secondary structure elements was calculated with CDNN using the PEPFIT set of reference spectra for secondary structure determination ([45],[46]):(2) where [Θ]m = mean molar ellipticity per peptide bond (degree·cm^2·dmol^−1·10^4), Θ = measured ellipticity (degree), d = optical path length (cm), cg = mass concentration (g·l^−1), MRW = mean residue weight, M = molar mass of the peptide (g·mol^−1) and N = number of peptide bonds.
# [2] = target: proteinase K (Parengyodontium album, UniProt P06873); test: Protease stability assay; format: in vitro ADME; settings: proteinase K 10 μg·ml^−1, fluorescein-labeled peptide 50 μM, 10 mM Tris pH 8.0, 150 mM NaCl, room temperature, HPLC absorbance 210 nm, exponential decay fit
# Sequence of proteinase K (P06873 106-384): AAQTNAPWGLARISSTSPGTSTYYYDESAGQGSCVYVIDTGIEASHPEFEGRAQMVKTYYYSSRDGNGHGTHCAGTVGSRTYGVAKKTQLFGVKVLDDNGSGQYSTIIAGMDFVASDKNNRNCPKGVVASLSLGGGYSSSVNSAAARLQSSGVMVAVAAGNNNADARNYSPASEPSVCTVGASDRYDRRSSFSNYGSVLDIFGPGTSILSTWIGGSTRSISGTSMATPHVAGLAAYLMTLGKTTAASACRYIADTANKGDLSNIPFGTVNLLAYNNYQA
# Method: Protease stability assays were performed in analogy to a previously published protocol ([47]). Stocks of fluorescein-labeled peptides were prepared to a concentration of 55.5 μM in assay buffer (10 mM Tris, pH 8.0, 150 mM NaCl) and separately stocks of proteinase K also in assay buffer (c = 100 μg·ml^−1). To begin each experiment, peptide and proteinase K stocks were mixed (final concentrations: c = 10 μg·ml^−1 proteinase K, c = 50 μM fluorescein-labeled peptide; final volume = 500 μl) and incubated at room temperature. At each time point, 50 μl of the reaction mixture was quenched by adding 100 μl of TFA/ACN/H2O (v/v/v, 1:49:49) and subsequently incubated for 2 min on ice. Following centrifugation (15 min, 13200 rpm, 4°C), samples (45 μl) were monitored by analytical HPLC using a linear gradient of 10–60% HPLC solvent B over 20 min. The amount of remaining peptide was quantified via absorbance at λ = 210 nm (intact peptide (%)) and plotted against time (t) (h). Half-life (t1/2) was calculated by fitting the data to an exponential decay using the software Prism 5.0 (GraphPad).
# [3] = target: pal-RNA duplex; test: ITC of N-terminally acetylated peptides with pal-RNA duplex; format: binding
# Method: Isothermal titration calorimetry (ITC) was conducted using a MicroCal VP-ITC (Malvern Panalytical). Before measurement, oligonucleotide and peptide samples were dissolved in PBS and degassed using a ThermoVac (Malvern Panalytical) and heated to 30°C. N-terminally acetylated peptides (c = 3–12 μM) were then transferred into the sample cell and oligonucleotides (c = 12–72 μM) were transferred into the syringe. 35 Injections per measurement were performed at 30°C (8 μl injection volume, 2 s injection time, 180 s spacing, high feedback mode) with an initial delay of 60 s and a stirring speed of 307 rpm. Measurements were performed in triplicate. Using the MicroCal LLC ITC software (Origin; OriginLab Corporation), the heat associated with each injection was calculated by integrating the area under the curve in microcalories per second [μca/s] versus time [min] for each injection and then normalized to concentration. A ‘single set of identical binding sites’ model was used to fit the binding curves from which thermodynamic binding parameters (ΔG, ΔH, ΔS, N and Kd) were obtained.
# [4] = tested on: ds pal-RNA; test: EMSA with ds pal-RNA; format: binding; settings: fluorescein-labeled peptide 6 μM, RNA 3 μM, 10% native PAGE, 4°C
# Method: Electrophoretic mobility shift assays (EMSAs) were performed using a Bio-Rad Mini-Protean gel system paired with a direct current (DC) power source (PowerPac™ HC, Bio-Rad). Typically, 6 μl solutions containing ds RNA (c = 3 μM) and fluorescein-labeled peptide (c = 6 μM) were incubated in binding buffer (10 mM Tris (pH 8.0), 0.5 mM EDTA, 12.5% glycerol and 150 mM KCl) at 4°C for 1 h. After incubation, bound RNA was resolved from peptide-free RNA using 10% non-denaturing polyacrylamide gels at 120 V in running buffer (25 mM Tris (pH 8.0), 200 mM glycine, 20 mM NaCl) at 4°C for 1 h. Visualization of fluorescent gel-bound species was conducted using a Typhoon Trio + fluorescence scanner (GE Healthcare Life Sciences). For nucleic acid visualization, gels were stained using 2 μl of SYBR™ gold nucleic acid gel dye (Molecular Probes) in 20 ml of TAE buffer (40 mM Tris, 1 mM EDTA, 20 mM acetic acid) for 45 min at RT before being visualized using a FluorChem™ gel documentation system (Alpha Innotech). To assess B3 binding to different ds RNA sequences (Supplementary Figure S20), 6 μl solutions containing hairpin RNA (c = 1 μM) and fluorescein-labeled B3 (c = 2 μM) were incubated in binding buffer (TAE and 10% glycerol) at RT for 1 h, and then resolved using 15% non-denaturing polyacrylamide gels (acrylamide/bis-acrylamide (19:1) in TAE) at 150 V in running buffer (TAE) at 4°C for 1.5 h. Visualization of fluorescent gel-bound species was conducted using a Bio-Rad ChemiDoc (Bio-Rad). Subsequently, gels were stained with SYBR™ gold nucleic acid gel dye (Invitrogen) as described above and visualized using the same imaging system. To assess B3 binding to pre–miR-21 (Supplementary Figure S24), the RNA was prepared at a fixed concentration (c = 1 μM) and incubated with varying concentrations of fluorescein-labeled B3 (c = 0–5 μM) in binding buffer (TAE and 10% glycerol) at RT for 1 h. After incubation, bound nucleic acid complexes were resolved using 15% non-denaturing polyacrylamide gels (acrylamide/bis-acrylamide (19:1) in TAE) at 150 V in running buffer (TAE) at 4°C for 1.5 h, followed by visualization and staining with SYBR™ gold nucleic acid gel dye (Invitrogen).
SMILES,half-life t1/2 [min],Random coil [1] [%],β-Sheet [1] [%],β-Turn [1] [%],Helix (α-helicity) [1],Half-life (t1/2) [2] [min],"Kd ([3]; N-terminally acetylated peptide, PBS pH 7.4, 30°C, single set of identical binding sites model, triplicate, errors 1σ) [nM]","fold increased affinity compared to linear peptide wt33 ([3]; unlabeled analogs, pal-RNA) [fold]",binding to ds pal-RNA in EMSA [4]
CC(C)C[C@H](NC(=O)[C@H](CCC(=O)O)NC(=O)[C@H](CO)NC(=O)[C@H](CCCNC(=N)N)NC(=O)[C@H](CCCNC(=N)N)NC(=O)[C@H](CCC(N)=O)NC(=O)[C@H](CCC(=O)O)NC(=O)[C@H](CO)NC(=O)[C@@H]1CCCN1C(=O)[C@H](CO)NC(=O)[C@H](CCCCN)NC(=O)[C@H](Cc1c[nH]cn1)NC(=O)CNC(=O)[C@H](CCCNC(=N)N)NC(=O)[C@H](CCC(=O)O)NC(=O)[C@H](CCCCN)NC(=O)[C@H](CCCNC(=N)N)NC(=O)[C@H](CC(N)=O)NC(=O)[C@]1(C)CCCC=CCCC[C@](C)(NC(=O)[C@H](CCCNC(=N)N)NC(=O)[C@H](CCC(N)=O)NC(=O)[C@H](C)NC(=O)[C@H](CCC(N)=O)NC(=O)[C@H](CCCCN)NC(=O)[C@H](CCCCN)NC(=O)COCCOCCNC(=S)Nc2ccc3c(c2)C(=O)OC32c3ccc(O)cc3Oc3cc(O)ccc32)C(=O)N[C@@H](CCCNC(=N)N)C(=O)N[C@@H](Cc2c[nH]cn2)C(=O)N[C@@H](CCCCN)C(=O)N1)C(=O)N[C@@H](Cc1c[nH]c2ccccc12)C(=O)N[C@@H](Cc1c[nH]cn1)C(=O)N[C@@H](C)C(=O)N[C@@H](CCCNC(=N)N)C(N)=O [A2] ({FITC-AEEA}-KKQAQR[S5]RHK[S5]NRKERGHKSPSEQRRSELWHAR-NH2; staple 7-11),3,51.3,21.6,7.9,21.9%,2.3,–,–,–
CC(C)C[C@H](NC(=O)[C@H](CCC(=O)O)NC(=O)[C@H](CO)NC(=O)[C@H](CCCNC(=N)N)NC(=O)[C@H](CCCNC(=N)N)NC(=O)[C@H](CCC(N)=O)NC(=O)[C@H](CCC(=O)O)NC(=O)[C@H](CO)NC(=O)[C@@H]1CCCN1C(=O)[C@H](CO)NC(=O)[C@H](CCCCN)NC(=O)[C@H](Cc1c[nH]cn1)NC(=O)CNC(=O)[C@H](CCCNC(=N)N)NC(=O)[C@H](CCC(=O)O)NC(=O)[C@H](CCCCN)NC(=O)[C@H](CCCNC(=N)N)NC(=O)[C@H](CC(N)=O)NC(=O)[C@]1(C)CCCC=CCCCCCC[C@@](C)(NC(=O)[C@H](CCC(N)=O)NC(=O)[C@H](CCCCN)NC(=O)[C@H](CCCCN)NC(=O)COCCOCCNC(=S)Nc2ccc3c(c2)C(=O)OC32c3ccc(O)cc3Oc3cc(O)ccc32)C(=O)N[C@@H](CCC(N)=O)C(=O)N[C@@H](CCCNC(=N)N)C(=O)N[C@@H](CCCCN)C(=O)N[C@@H](CCCNC(=N)N)C(=O)N[C@@H](Cc2c[nH]cn2)C(=O)N[C@@H](CCCCN)C(=O)N1)C(=O)N[C@@H](Cc1c[nH]c2ccccc12)C(=O)N[C@@H](Cc1c[nH]cn1)C(=O)N[C@@H](C)C(=O)N[C@@H](CCCNC(=N)N)C(N)=O [A1] ({FITC-AEEA}-KKQ[R8]QRKRHK[S5]NRKERGHKSPSEQRRSELWHAR-NH2; staple 4-11),3,51.4,2.9,9.6,39.1%,2.4,–,–,–
CC(C)C[C@H](NC(=O)[C@H](CCC(=O)O)NC(=O)[C@H](CO)NC(=O)[C@H](CCCNC(=N)N)NC(=O)[C@H](CCCNC(=N)N)NC(=O)[C@H](CCC(N)=O)NC(=O)[C@H](CCC(=O)O)NC(=O)[C@H](CO)NC(=O)[C@@H]1CCCN1C(=O)[C@H](CO)NC(=O)[C@H](CCCCN)NC(=O)[C@H](Cc1c[nH]cn1)NC(=O)CNC(=O)[C@H](CCCNC(=N)N)NC(=O)[C@]1(C)CCCC=CCCC[C@](C)(NC(=O)[C@H](CCCCN)NC(=O)[C@H](Cc2c[nH]cn2)NC(=O)[C@H](CCCNC(=N)N)NC(=O)[C@H](CCCCN)NC(=O)[C@H](CCCNC(=N)N)NC(=O)[C@H](CCC(N)=O)NC(=O)[C@H](C)NC(=O)[C@H](CCC(N)=O)NC(=O)[C@H](CCCCN)NC(=O)[C@H](CCCCN)NC(=O)COCCOCCNC(=S)Nc2ccc3c(c2)C(=O)OC32c3ccc(O)cc3Oc3cc(O)ccc32)C(=O)N[C@@H](CC(N)=O)C(=O)N[C@@H](CCCNC(=N)N)C(=O)N[C@@H](CCCCN)C(=O)N1)C(=O)N[C@@H](Cc1c[nH]c2ccccc12)C(=O)N[C@@H](Cc1c[nH]cn1)C(=O)N[C@@H](C)C(=O)N[C@@H](CCCNC(=N)N)C(N)=O [A3] ({FITC-AEEA}-KKQAQRKRHK[S5]NRK[S5]RGHKSPSEQRRSELWHAR-NH2; staple 11-15),3,52.8,10.6,10.1,24.0%,3.5,–,–,–
"CC(C)C[C@H](NC(=O)[C@]1(C)CCCC=CCCC[C@](C)(NC(=O)[C@H](CCC(=O)O)NC(=O)[C@H](CO)NC(=O)[C@@H]2CCCN2C(=O)[C@H](CO)NC(=O)[C@H](CCCCN)NC(=O)[C@H](Cc2c[nH]cn2)NC(=O)CNC(=O)[C@H](CCCNC(=N)N)NC(=O)[C@H](CCC(=O)O)NC(=O)[C@H](CCCCN)NC(=O)[C@H](CCCNC(=N)N)NC(=O)[C@H](CC(N)=O)NC(=O)[C@]2(C)CCCC=CCCCCCC[C@@](C)(NC(=O)[C@H](CCC(N)=O)NC(=O)[C@H](CCCCN)NC(=O)[C@H](CCCCN)NC(=O)COCCOCCNC(=S)Nc3ccc4c(c3)C(=O)OC43c4ccc(O)cc4Oc4cc(O)ccc43)C(=O)N[C@@H](CCC(N)=O)C(=O)N[C@@H](CCCNC(=N)N)C(=O)N[C@@H](CCCCN)C(=O)N[C@@H](CCCNC(=N)N)C(=O)N[C@@H](Cc3c[nH]cn3)C(=O)N[C@@H](CCCCN)C(=O)N2)C(=O)N[C@@H](CCCNC(=N)N)C(=O)N[C@@H](CCCNC(=N)N)C(=O)N[C@@H](CO)C(=O)N1)C(=O)N[C@@H](Cc1c[nH]c2ccccc12)C(=O)N[C@@H](Cc1c[nH]cn1)C(=O)N[C@@H](C)C(=O)N[C@@H](CCCNC(=N)N)C(N)=O [B1] ({FITC-AEEA}-KKQ[R8]QRKRHK[S5]NRKERGHKSPSE[S5]RRS[S5]LWHAR-NH2; staple 4-11, 24-28)",–,13.8,19.0,13.1,81.8% and 82–85%,829,260,5,full disappearance of the ds pal-RNA band
